Reference: publication PMC2693121 (Molecular cell, 2009)
pIC50: −log10 of the molar value.

How the values were obtained:
Cdk9 = Cdk9 (Schizosaccharomyces pombe, UniProt Q96WV9, T120G); assay: radiometric kinase assay with [γ-32P]-ATP on GST-Spt5; format: biochemical
Mcs6 = Mcs6 (Schizosaccharomyces pombe, UniProt Q12126, L87G); assay: radiometric kinase assay with [γ-32P]-ATP on GST-Rpb1-CTD; format: biochemical
Sequence of Mcs6 (P36613 whole entry): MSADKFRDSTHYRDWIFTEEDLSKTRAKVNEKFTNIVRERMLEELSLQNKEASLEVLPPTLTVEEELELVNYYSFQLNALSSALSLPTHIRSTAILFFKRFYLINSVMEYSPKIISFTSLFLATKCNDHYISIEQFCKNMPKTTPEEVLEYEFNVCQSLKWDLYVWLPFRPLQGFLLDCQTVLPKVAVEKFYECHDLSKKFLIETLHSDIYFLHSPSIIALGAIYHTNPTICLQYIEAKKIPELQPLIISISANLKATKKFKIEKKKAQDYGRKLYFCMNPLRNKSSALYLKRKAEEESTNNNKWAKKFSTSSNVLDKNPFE
Sequence of Mcs6 (Q12126 whole entry, stated change not applied): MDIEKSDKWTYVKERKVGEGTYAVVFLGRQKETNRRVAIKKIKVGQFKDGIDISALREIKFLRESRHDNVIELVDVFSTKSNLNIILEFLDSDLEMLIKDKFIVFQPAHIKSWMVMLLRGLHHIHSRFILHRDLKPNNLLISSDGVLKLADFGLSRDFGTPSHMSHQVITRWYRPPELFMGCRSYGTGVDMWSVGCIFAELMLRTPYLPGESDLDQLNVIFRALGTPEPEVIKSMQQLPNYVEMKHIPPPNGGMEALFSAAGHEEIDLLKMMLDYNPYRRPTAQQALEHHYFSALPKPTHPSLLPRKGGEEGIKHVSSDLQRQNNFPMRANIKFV
Sequence of Mcs6 (O94684 whole entry, further chain): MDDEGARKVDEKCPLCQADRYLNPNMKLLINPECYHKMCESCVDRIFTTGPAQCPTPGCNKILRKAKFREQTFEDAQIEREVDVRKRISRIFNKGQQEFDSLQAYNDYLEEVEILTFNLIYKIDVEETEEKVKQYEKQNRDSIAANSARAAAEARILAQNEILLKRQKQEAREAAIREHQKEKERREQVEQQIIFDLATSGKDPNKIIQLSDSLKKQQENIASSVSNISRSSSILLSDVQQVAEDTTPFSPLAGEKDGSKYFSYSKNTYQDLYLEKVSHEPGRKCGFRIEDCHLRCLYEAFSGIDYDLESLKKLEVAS

Sequence of Cdk9 (O74880 whole entry): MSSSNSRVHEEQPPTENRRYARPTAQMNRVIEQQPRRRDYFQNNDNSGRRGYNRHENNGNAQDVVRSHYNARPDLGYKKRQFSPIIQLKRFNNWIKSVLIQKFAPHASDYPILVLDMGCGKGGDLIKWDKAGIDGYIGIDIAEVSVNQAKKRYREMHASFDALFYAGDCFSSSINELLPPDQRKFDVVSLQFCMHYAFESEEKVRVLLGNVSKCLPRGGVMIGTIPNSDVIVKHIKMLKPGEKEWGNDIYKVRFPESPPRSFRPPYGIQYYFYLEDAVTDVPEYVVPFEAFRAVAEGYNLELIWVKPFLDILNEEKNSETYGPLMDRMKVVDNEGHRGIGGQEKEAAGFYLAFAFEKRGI
Sequence of Cdk9 (O74627 whole entry, further chain): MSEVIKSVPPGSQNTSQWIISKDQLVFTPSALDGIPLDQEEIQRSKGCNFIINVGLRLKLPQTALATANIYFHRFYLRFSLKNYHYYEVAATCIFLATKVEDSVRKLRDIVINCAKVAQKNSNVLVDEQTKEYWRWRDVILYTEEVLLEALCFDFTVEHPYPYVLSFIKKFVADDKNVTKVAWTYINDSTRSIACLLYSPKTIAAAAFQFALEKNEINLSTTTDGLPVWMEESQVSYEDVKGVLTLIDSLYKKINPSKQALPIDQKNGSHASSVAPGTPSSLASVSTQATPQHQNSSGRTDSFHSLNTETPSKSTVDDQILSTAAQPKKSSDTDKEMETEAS
Sequence of Cdk9 (Q96WV9 whole entry, stated change not applied): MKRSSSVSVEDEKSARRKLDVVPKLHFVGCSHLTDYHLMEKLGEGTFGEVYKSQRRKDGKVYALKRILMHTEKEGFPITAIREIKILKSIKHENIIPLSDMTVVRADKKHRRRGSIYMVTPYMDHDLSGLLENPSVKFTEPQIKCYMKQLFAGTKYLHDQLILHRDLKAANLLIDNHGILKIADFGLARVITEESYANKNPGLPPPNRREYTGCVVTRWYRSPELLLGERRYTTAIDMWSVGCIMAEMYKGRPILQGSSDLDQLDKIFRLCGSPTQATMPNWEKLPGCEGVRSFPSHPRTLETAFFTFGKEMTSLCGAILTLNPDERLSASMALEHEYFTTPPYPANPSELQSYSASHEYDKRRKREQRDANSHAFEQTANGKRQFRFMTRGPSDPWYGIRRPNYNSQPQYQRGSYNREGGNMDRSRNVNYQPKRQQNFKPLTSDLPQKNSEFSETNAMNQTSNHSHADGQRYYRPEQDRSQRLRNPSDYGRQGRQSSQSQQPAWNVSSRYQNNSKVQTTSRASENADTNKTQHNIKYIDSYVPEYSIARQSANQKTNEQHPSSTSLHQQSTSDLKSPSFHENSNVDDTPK

| Compound | pIC50 (Cdk9) | pIC50 (Mcs6) |
| --- | --- | --- |
| CC(C)(C)n1nc(Cc2cccc3ccccc23)c2c(N)ncnc21 [1-NM-PP1] | ~6.30 |  |
| Cc1cccc(Cc2nn(C(C)(C)C)c3ncnc(N)c23)c1 [3-MB-PP1] | ~7.60 | ~6.90 |
